Test in all cases: Yeast two-hybrid assay (HIS3 / β-galactosidase reporter)
What all share (type): cell-based

One assay has as its target T1, ERRα1 (Homo sapiens, UniProt P11474).
T1 construct: inserting the PCR-amplified ERRA-1 coding region into pGBT9 through an EcoRI site; expressed in transfected cells; host or cells: yeast Y187 x CG1945 diploids
T1 sequence (P11474 1-423): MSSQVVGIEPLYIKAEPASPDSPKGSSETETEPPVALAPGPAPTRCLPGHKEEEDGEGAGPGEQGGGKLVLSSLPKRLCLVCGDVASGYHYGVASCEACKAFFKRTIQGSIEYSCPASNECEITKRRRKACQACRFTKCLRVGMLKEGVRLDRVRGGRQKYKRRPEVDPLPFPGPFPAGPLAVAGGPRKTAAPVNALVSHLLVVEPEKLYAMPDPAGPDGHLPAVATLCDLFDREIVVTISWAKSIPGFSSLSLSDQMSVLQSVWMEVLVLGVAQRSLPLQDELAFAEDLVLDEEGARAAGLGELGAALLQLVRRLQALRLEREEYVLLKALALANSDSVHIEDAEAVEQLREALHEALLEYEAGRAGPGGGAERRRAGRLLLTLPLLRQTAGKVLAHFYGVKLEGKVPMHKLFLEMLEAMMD
As to conditions: no ligand. The method, then:
(§1) The protein-protein interactions between the full-length PNRC or PNRC fragments and SF1, ERRα1, and several other nuclear receptors were analyzed by yeast two-hybrid assays. The yeast two-hybrid assay was used to test if PNRC also interacts with other members of the nuclear receptor superfamily. pGBT9-ERRα-1 yeast expression plasmid was prepared by inserting the PCR-amplified ERRA-1 coding region into pGBT9 through an EcoRI site. To construct the plasmid pGBT9-ER274-595, the coding sequence from amino acids 274 to 595 (LBD) of ERα was amplified by PCR with the sense primer 5′-[…]-3′ (SEQ ID NO:1) and antisense primer 5′-[…]-3′ (SEQ ID NO:2) and cloned into the EcoRI/,SalI site of the pGBT9 yeast expression plasmid. pSG5-GRIP1 and several yeast expression plasmids coding for fusion proteins of Gal4-DBD and HBDs of AR, GR, PR, TR, RAR, and RXR in pGBT9 vector were kindly provided by Dr. Michael R. Stallcup (University of Southern California, Los Angeles, Calif.) (Voegel et al., 1996; Hong et al., 1996; Ding et al., 1998). The yeast mating approach was used in yeast two-hybrid assays to study protein-protein interactions as described in Clontech's protocol. Briefly, pGBT9 (DNA-BD vector only), pGBT9/target plasnmids for SF1, ERRα1, and other HBDs of nuclear receptors, and DNA-BD/control plasmids (as negative control) were introduced into the reporter strain Y187, and the AD vector alone or wild type PNRC and its deleted fragments-containing pACT2 derivatives were used to transform yeast strain CG1945. The yeast mating was performed by picking one colony from each type and growing both colonies in liquid YPD medium with or without a proper ligand at the following concentrations: 100 nM of estradiol for ER; 10 μM of deoxycorticosterone for GR; 100 nM of dihydrotestosterone for AR; 500 nM of progesterone for PR; 10 μM of T3 for TR; 10 μM of all-trans-retinoic acid for RAR; and 10 μM of 9-cis-retinoic acid for RXR. The same amount of an aliquot of the mating culture was spread on both SD/-Leu/-Trp plates to select diploid strains bearing both plasmids and SD/-Leu/-Trp/-His/+3-AT plates to score the growth of the diploid cells that express the two interacting target proteins. The His3 positive colonies were further analyzed for β-galactosidase activity by liquid β-galactosidase activity measurement as essentially described in the protocol.
(§2) Yeast strains Y187 expressing the Gal4DB fusion to the nuclear receptors and CG1945expressing Gal4AD alone or Gal4AD-PNRC fusion protein were mated by co-culturing, and selected for the presence of both two-hybrid plasmids. The expression of interacting hybrid proteins in yeast diploids was analyzed to determine if there was induction of HIS3 expression as shown in FIG. 1A and LacZ expression as shown in FIGS. 1B and 1C. […] As shown in FIGS. 1A-C, PNRC also interacted specifically with all seven nuclear receptor HBDs, including ER, AR, GR, TR, PR, RAR and RXR, and these interactions were completely ligand-dependent. […] However, no interactions occurred either between PNRC and an irrelevant protein such as human lamin C protein or between nuclear receptors and Gal4activation domain alone.

The subject of the next assay is TR HBD. As to conditions: 10 μM of T3. The method, then:
as §1, §2

The next assay relates to RAR HBD. As to conditions: 10 μM of all-trans-retinoic acid. The method, then:
as §1, §2

The test system of the next assay is GR HBD. As to conditions: 10 μM of deoxycorticosterone. Here is the method:
as §1, §2

The target of the next assay is T2, ER (ERα LBD, aa 274-595) (Homo sapiens, UniProt P03372).
T2 construct: expressed in transfected cells; host or cells: yeast Y187 x CG1945 diploids
As to conditions: 100 nM of estradiol. Here is the method:
as §1, §2

For another assay, the system named is RXR HBD. As to conditions: 10 μM of 9-cis-retinoic acid. The method, then:
as §1, §2

T2 sequence (P03372 274-595): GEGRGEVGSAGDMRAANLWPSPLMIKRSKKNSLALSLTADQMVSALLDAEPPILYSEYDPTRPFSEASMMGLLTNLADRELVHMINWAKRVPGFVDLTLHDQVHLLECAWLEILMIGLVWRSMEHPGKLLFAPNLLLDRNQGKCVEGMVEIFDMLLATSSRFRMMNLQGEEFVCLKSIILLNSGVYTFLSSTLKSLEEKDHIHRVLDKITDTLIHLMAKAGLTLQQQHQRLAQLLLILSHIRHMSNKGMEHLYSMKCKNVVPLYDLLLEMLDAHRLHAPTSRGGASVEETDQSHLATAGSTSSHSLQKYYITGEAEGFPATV
T2 sequence (Q12796 whole entry partner, the tested form may be a part): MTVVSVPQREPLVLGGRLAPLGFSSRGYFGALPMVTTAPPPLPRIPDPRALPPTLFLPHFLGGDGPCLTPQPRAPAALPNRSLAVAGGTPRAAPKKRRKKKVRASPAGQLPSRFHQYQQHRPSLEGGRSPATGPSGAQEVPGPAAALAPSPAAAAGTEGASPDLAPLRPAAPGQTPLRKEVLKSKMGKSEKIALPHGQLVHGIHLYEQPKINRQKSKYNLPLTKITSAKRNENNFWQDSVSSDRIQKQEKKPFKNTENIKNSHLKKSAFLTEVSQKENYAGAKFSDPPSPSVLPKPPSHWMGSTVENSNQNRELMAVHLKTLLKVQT

With “PNRC: proline-rich nuclear receptor co-regulatory protein, 327 aa, SEQ ID NO:8, nuclear receptor coactivator”, the “interaction with ERRα1” value with ERRα1 is “interacted with orphan receptors SF1 and ERRα1 in the absence of any added activator or ligand”. Besides, in the assay with TR HBD, the “interaction with TR” value is “interacts strongly”. The “interaction with RAR” value with RAR HBD is given as “only weak interactions were detected”. The “interaction with GR” value in the assay with GR HBD is listed as “only weak interactions were detected”. Moreover, the “interaction with ER” value with ER (ERα LBD, aa 274-595) is on record as “only weak interactions were detected”. Also, the “interaction with RXR” value in the assay with RXR HBD is reported as “interacts strongly”.

The values are drawn from patent publication US6972178B1, “Drug screening using a proline-rich nuclear receptor co-regulatory protein/nuclear receptor co-expression system” (City of Hope, priority 1999, dated 2005).
